Common to all, as to assay: relative viability (nuclei count vs DMSO), 5 days (fraction); higher = more cells survive
Compound in the experiment “Etoposide + Vorinostat”: COc1cc([C@@H]2c3cc4c(cc3[C@@H](O[C@@H]3O[C@@H]5CO[C@@H](C)O[C@H]5[C@H](O)[C@H]3O)[C@H]3COC(=O)[C@H]23)OCO4)cc(OC)c1O [Etoposide] + O=C(CCCCCCC(=O)Nc1ccccc1)NO [Vorinostat] (partner 1 µM)
An outline of the steps:
(§1)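 Nuclei were stained with Hoechst during a one-step fixation (final 0.05% Triton X-100, 1% formaldehyde, 1 ug/ml Hoechst) carried out 5 days after dosing, then counted on 4× images. The cells, lung cancer lines in 1536-well plates, had been dosed by pin tool the day after seeding with one drug alone or a fixed anchor-drug dose plus five library-drug doses (not always all listed) in √10 steps. Relative viability is the nuclei count in treated wells divided by that in vehicle wells, and each value is the median of duplicate plates.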

Compound in the experiment “Bleomycin + Phenformin”: CC1=C(N=C(N=C1N)[C@H](CC(=O)N)NC[C@@H](C(=O)N)N)C(=O)N[C@@H]([C@H](C2=CN=CN2)OC3C(C(C(C(O3)CO)O)O)OC4C(C(C(C(O4)CO)O)OC(=O)N)O)C(=O)N[C@H](C)[C@H]([C@H](C)C(=O)N[C@@H]([C@@H](C)O)C(=O)NCCC5=NC(=CS5)C6=NC(=CS6)C(=O)NCCC[S+](C)C)O [Bleomycin] + N=C(N)NC(=N)NCCc1ccccc1 [Phenformin] (partner 250 µM)
Conditions: main component drawn. An outline of the steps: as §1

Compound in the experiment “Etoposide + Pictilisib”: COc1cc([C@@H]2c3cc4c(cc3[C@@H](O[C@@H]3O[C@@H]5CO[C@@H](C)O[C@H]5[C@H](O)[C@H]3O)[C@H]3COC(=O)[C@H]23)OCO4)cc(OC)c1O [Etoposide] + CS(=O)(=O)N1CCN(Cc2cc3nc(-c4cccc5[nH]ncc45)nc(N4CCOCC4)c3s2)CC1 [Pictilisib] (partner 1 µM)
The method, boiled down: as §1

Compound in the experiment “Etoposide + Trametinib”: COc1cc([C@@H]2c3cc4c(cc3[C@@H](O[C@@H]3O[C@@H]5CO[C@@H](C)O[C@H]5[C@H](O)[C@H]3O)[C@H]3COC(=O)[C@H]23)OCO4)cc(OC)c1O [Etoposide] + CC(=O)Nc1cccc(-n2c(=O)n(C3CC3)c(=O)c3c(Nc4ccc(I)cc4F)n(C)c(=O)c(C)c32)c1 [Trametinib] (partner 0.02 µM)
The method, boiled down:
as §1

As for NCI-H2347, the relative viability with Etoposide + Vorinostat (first compound 0.01 µM) was determined as 0.412; in the experiment with Etoposide + Vorinostat (first compound 0.03162 µM) it was 0.646; with Etoposide + Vorinostat (first compound 0.1 µM), 0.475; in the experiment with Etoposide + Vorinostat (first compound 0.3162 µM) it was 0.382; with Etoposide + Vorinostat (first compound 1 µM), 0.432; in the experiment with Bleomycin + Phenformin (first compound 0.01 µM) it was 0.374. Further, the relative viability with Bleomycin + Phenformin (first compound 0.03162 µM) amounted to 0.437; in the experiment with Bleomycin + Phenformin (first compound 0.1 µM), 0.222; with Bleomycin + Phenformin (first compound 0.3162 µM) it was 0.255; with Bleomycin + Phenformin (first compound 1 µM) it was 0.286; with Etoposide + Pictilisib (first compound 0.01 µM) it was 0.921; with Etoposide + Pictilisib (first compound 0.03162 µM), 0.757. Further, the relative viability came out at 0.309 with Etoposide + Pictilisib (first compound 0.1 µM); 0.285 with Etoposide + Pictilisib (first compound 0.3162 µM); 0.392 with Etoposide + Pictilisib (first compound 1 µM); 0.25 in the experiment with Etoposide + Trametinib (first compound 0.01 µM); 0.301 with Etoposide + Trametinib (first compound 0.03162 µM); 0.25 in the experiment with Etoposide + Trametinib (first compound 0.1 µM). Moreover, the results for the relative viability with Etoposide + Trametinib (first compound 0.3162 µM) and in the experiment with Etoposide + Trametinib (first compound 1 µM) were 0.269 and 0.278, respectively.

In the case of LOU-NH91, the relative viability worked out at 0.88 with Etoposide + Vorinostat (first compound 0.01 µM); 0.982 with Etoposide + Vorinostat (first compound 0.03162 µM); 0.831 in the experiment with Etoposide + Vorinostat (first compound 0.1 µM); 0.659 with Etoposide + Vorinostat (first compound 0.3162 µM); 0.387 in the experiment with Etoposide + Vorinostat (first compound 1 µM); 0.686 with Bleomycin + Phenformin (first compound 0.01 µM). In addition, the relative viability with Bleomycin + Phenformin (first compound 0.03162 µM) turned out to be 0.488; with Bleomycin + Phenformin (first compound 0.1 µM), 0.515; in the experiment with Bleomycin + Phenformin (first compound 0.3162 µM) it was 0.383; with Bleomycin + Phenformin (first compound 1 µM), 0.343; with Etoposide + Pictilisib (first compound 0.01 µM), 0.55; in the experiment with Etoposide + Pictilisib (first compound 0.03162 µM), 0.566. Further, the relative viability with Etoposide + Pictilisib (first compound 0.1 µM) was 0.474; in the experiment with Etoposide + Pictilisib (first compound 0.3162 µM), 0.473; with Etoposide + Pictilisib (first compound 1 µM) it was 0.399; with Etoposide + Trametinib (first compound 0.01 µM), 0.731; with Etoposide + Trametinib (first compound 0.03162 µM) it was 0.817; with Etoposide + Trametinib (first compound 0.1 µM) it was 0.659. Moreover, the relative viability in the experiment with Etoposide + Trametinib (first compound 0.3162 µM) turned out to be 0.758; with Etoposide + Trametinib (first compound 1 µM) it was 0.552.

For the cell line NCI-H2085, the relative viability with Etoposide + Vorinostat (first compound 0.01 µM) is 0.762; in the experiment with Etoposide + Vorinostat (first compound 0.03162 µM), 0.809; with Etoposide + Vorinostat (first compound 0.1 µM), 0.635; in the experiment with Etoposide + Vorinostat (first compound 0.3162 µM) it was 0.75; with Etoposide + Vorinostat (first compound 1 µM), 0.301; with Bleomycin + Phenformin (first compound 0.01 µM), 0.599. The relative viability in the experiment with Bleomycin + Phenformin (first compound 0.03162 µM) came out at 0.595; in the experiment with Bleomycin + Phenformin (first compound 0.1 µM), 0.55; with Bleomycin + Phenformin (first compound 0.3162 µM) it was 0.329; in the experiment with Bleomycin + Phenformin (first compound 1 µM), 0.306; in the experiment with Etoposide + Pictilisib (first compound 0.01 µM) it was 0.513; with Etoposide + Pictilisib (first compound 0.03162 µM), 0.491. Also, the relative viability in the experiment with Etoposide + Pictilisib (first compound 0.1 µM) was found to be 0.324; with Etoposide + Pictilisib (first compound 0.3162 µM), 0.433; in the experiment with Etoposide + Pictilisib (first compound 1 µM), 0.287; in the experiment with Etoposide + Trametinib (first compound 0.01 µM) it was 0.484; with Etoposide + Trametinib (first compound 0.03162 µM), 0.643; in the experiment with Etoposide + Trametinib (first compound 0.1 µM), 0.423. Further, the relative viability in the experiment with Etoposide + Trametinib (first compound 0.3162 µM) was 0.266; with Etoposide + Trametinib (first compound 1 µM), 0.271.

Consider COR-L23, for which the relative viability with Etoposide + Vorinostat (first compound 0.01 µM) came out at 0.48; with Etoposide + Vorinostat (first compound 0.03162 µM), 0.487; with Etoposide + Vorinostat (first compound 0.1 µM), 0.352; in the experiment with Etoposide + Vorinostat (first compound 0.3162 µM), 0.214; with Etoposide + Vorinostat (first compound 1 µM), 0.13; with Bleomycin + Phenformin (first compound 0.01 µM), 0.316. The relative viability in the experiment with Bleomycin + Phenformin (first compound 0.03162 µM) worked out at 0.292; with Bleomycin + Phenformin (first compound 0.1 µM) it was 0.219; in the experiment with Bleomycin + Phenformin (first compound 0.3162 µM), 0.123; with Bleomycin + Phenformin (first compound 1 µM) it was 0.123; in the experiment with Etoposide + Pictilisib (first compound 0.01 µM), 0.733; with Etoposide + Pictilisib (first compound 0.03162 µM), 0.726. Moreover, the relative viability with Etoposide + Pictilisib (first compound 0.1 µM) stood at 0.401; with Etoposide + Pictilisib (first compound 0.3162 µM) it was 0.418; in the experiment with Etoposide + Pictilisib (first compound 1 µM), 0.122; in the experiment with Etoposide + Trametinib (first compound 0.01 µM) it was 0.578; with Etoposide + Trametinib (first compound 0.03162 µM), 0.666; with Etoposide + Trametinib (first compound 0.1 µM) it was 0.348. Besides, the relative viability with Etoposide + Trametinib (first compound 0.3162 µM) was 0.488; in the experiment with Etoposide + Trametinib (first compound 1 µM) it was 0.233.

With BEN, the relative viability in the experiment with Etoposide + Vorinostat (first compound 0.01 µM) worked out at 0.542; with Etoposide + Vorinostat (first compound 0.03162 µM), 0.722; with Etoposide + Vorinostat (first compound 0.3162 µM) it was 0.559; in the experiment with Etoposide + Vorinostat (first compound 1 µM), 0.616; in the experiment with Bleomycin + Phenformin (first compound 0.01 µM), 0.247; with Bleomycin + Phenformin (first compound 0.03162 µM) it was 0.277. In addition, the relative viability with Bleomycin + Phenformin (first compound 0.1 µM) came to 0.251; with Bleomycin + Phenformin (first compound 0.3162 µM), 0.24; in the experiment with Bleomycin + Phenformin (first compound 1 µM) it was 0.235; with Etoposide + Pictilisib (first compound 0.01 µM), 0.477; with Etoposide + Pictilisib (first compound 0.03162 µM), 0.62; with Etoposide + Pictilisib (first compound 0.3162 µM), 0.545. The relative viability in the experiment with Etoposide + Pictilisib (first compound 1 µM) amounted to 0.376; in the experiment with Etoposide + Trametinib (first compound 0.01 µM), 0.919; with Etoposide + Trametinib (first compound 0.03162 µM), 1.01; with Etoposide + Trametinib (first compound 0.3162 µM) it was 1.05; in the experiment with Etoposide + Trametinib (first compound 1 µM), 0.852.

As to ChaGo-K-1, the relative viability with Etoposide + Vorinostat (first compound 0.01 µM) turned out to be 0.756; in the experiment with Etoposide + Vorinostat (first compound 0.03162 µM), 0.736; with Etoposide + Vorinostat (first compound 0.1 µM), 0.413; with Etoposide + Vorinostat (first compound 0.3162 µM), 0.353; with Etoposide + Vorinostat (first compound 1 µM), 0.197; with Bleomycin + Phenformin (first compound 0.01 µM), 0.383. Besides, the relative viability with Bleomycin + Phenformin (first compound 0.03162 µM) turned out to be 0.39; in the experiment with Bleomycin + Phenformin (first compound 0.1 µM), 0.384; with Bleomycin + Phenformin (first compound 0.3162 µM) it was 0.297; with Bleomycin + Phenformin (first compound 1 µM) it was 0.217; in the experiment with Etoposide + Pictilisib (first compound 0.01 µM), 0.815; in the experiment with Etoposide + Pictilisib (first compound 0.03162 µM), 0.616. For the same cell line, the relative viability with Etoposide + Pictilisib (first compound 0.1 µM) worked out at 0.387; in the experiment with Etoposide + Pictilisib (first compound 0.3162 µM), 0.265; with Etoposide + Pictilisib (first compound 1 µM), 0.199; with Etoposide + Trametinib (first compound 0.01 µM), 0.881; in the experiment with Etoposide + Trametinib (first compound 0.03162 µM), 0.905; in the experiment with Etoposide + Trametinib (first compound 0.1 µM) it was 0.752. In addition, the figures for the relative viability with Etoposide + Trametinib (first compound 0.3162 µM) and in the experiment with Etoposide + Trametinib (first compound 1 µM) were 0.394 and 0.248, respectively.

Values taken from the supplement of paper PMC10307832.
